Reference: the supplement of paper PMC6045584
± gives the standard deviation of the averaged measurements.

Legend:
[1] = compound: Cc1ccc(NC(=O)c2ccc(CN3CCN(C)CC3)cc2)cc1Nc1nccc(-c2cccnc2)n1 [IMATINIB]; assay: surviving fraction relative to DMSO-only wells; higher = less growth inhibition; details: exposure time: 5 days
In short: (§1)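 Continuous five-day exposure to inhibitors at 0.5, 1, 5, 10, 50, 100, 500 and 1000 nM started 24 hours after log-phase tumour cell lines were seeded at 250–500 cells per well in 384-well plates. Luminescence was read after 10 minutes at room temperature. Viability is given as surviving fraction, meaning CellTiter-Glo luminescence normalised to the median of DMSO-only wells.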

[2] = compound: Cc1c(N)nc([C@H](CC(N)=O)NC[C@H](N)C(N)=O)nc1C(=O)N[C@H](C(=O)N[C@H](C)[C@@H](O)[C@H](C)C(=O)N[C@H](C(=O)NCCc1nc(-c2nc(C(=O)NCCC[S+](C)C)cs2)cs1)[C@@H](C)O)[C@@H](OC1OC(CO)C(O)C(O)C1OC1OC(CO)C(O)C(OC(N)=O)C1O)c1cnc[nH]1 [BLEOMYCIN]; assay: as above; details: exposure time: 5 days
In short: as §1

Test System	surviving fraction ([1]; 0.5 nM)	surviving fraction ([1]; 1 nM)	surviving fraction ([1]; 5 nM)	surviving fraction ([1]; 10 nM)	surviving fraction ([1]; 50 nM)	surviving fraction ([1]; 100 nM)	surviving fraction ([1]; 500 nM)	surviving fraction ([1]; 1000 nM)	surviving fraction ([2]; 0.5 nM)	surviving fraction ([2]; 1 nM)	surviving fraction ([2]; 5 nM)	surviving fraction ([2]; 10 nM)	surviving fraction ([2]; 50 nM)	surviving fraction ([2]; 100 nM)	surviving fraction ([2]; 500 nM)	surviving fraction ([2]; 1000 nM)
SCC47 HEADNECK	1.12 ± 0.017	1.2 ± 0.065	1.18 ± 0.072	1.19 ± 0.013	1.19 ± 0.025	1.25 ± 0.1	1.22 ± 0.11	1.21 ± 0.028	0.907 ± 0.031	0.909 ± 0.046	0.917 ± 0.038	0.9 ± 0.019	0.843 ± 0.026	0.677 ± 0.047	0.466 ± 0.057	0.436 ± 0.035
LM7 BONE	–	–	–	1.11 ± 0.082	1.19 ± 0.074	1.17 ± 0.063	1.04 ± 0.016	0.959 ± 0.11	0.745 ± 0.055	0.756 ± 0.039	0.834 ± 0.029	0.823 ± 0.091	0.91 ± 0.048	0.767 ± 0.05	0.402 ± 0.022	0.289 ± 0.044
BT549 BREAST	1.15 ± 0.1	1.13 ± 0.068	–	1.12 ± 0.044	–	1.17 ± 0.04	1.21 ± 0.11	1.1 ± 0.15	0.82 ± 0.091	0.818 ± 0.16	0.637 ± 0.1	0.599 ± 0.11	0.421 ± 0.053	0.304 ± 0.053	0.121 ± 0.011	0.122 ± 0.048
CME SYNOVIAL	1.27 ± 0.17	1.4 ± 0.045	1.28 ± 0.03	1.24 ± 0.16	1.22 ± 0.1	1.37 ± 0.042	1.15 ± 0.047	1.14 ± 0.055	0.718 ± 0.14	0.749 ± 0.16	0.742 ± 0.12	0.513 ± 0.081	0.265 ± 0.021	0.293 ± 0.036	0.211 ± 0.0078	0.203 ± 0.0091
93VU HEADNECK	1.11 ± 0.14	1.13 ± 0.1	1.18 ± 0.019	–	1.3 ± 0.099	1.25 ± 0.047	1.29 ± 0.074	1.1 ± 0.079	0.8 ± 0.006	0.83 ± 0.058	0.785 ± 0.011	0.783 ± 0.015	0.764 ± 0.058	0.633 ± 0.023	0.386 ± 0.025	0.327 ± 0.066
NY BONE	1.08 ± 0.021	1.08 ± 0.022	1.12 ± 0.051	1.1 ± 0.013	1.107 ± 0.0076	1.11 ± 0.025	1.04 ± 0.043	1.03 ± 0.019	0.9287 ± 0.0064	0.925 ± 0.054	0.938 ± 0.028	0.911 ± 0.026	0.793 ± 0.035	0.589 ± 0.044	0.238 ± 0.0045	0.161 ± 0.012
SUM149 BREAST	1.04 ± 0.08	1.11 ± 0.047	1.07 ± 0.079	1.08 ± 0.072	–	0.951 ± 0.07	0.866 ± 0.045	1.01 ± 0.046	0.779 ± 0.092	0.889 ± 0.09	0.707 ± 0.034	0.451 ± 0.08	0.273 ± 0.029	0.255 ± 0.069	0.106 ± 0.015	0.048 ± 0.013
SCC90 HEADNECK	–	–	1.07 ± 0.011	1.01 ± 0.073	1.17 ± 0.076	1.14 ± 0.08	1.17 ± 0.067	1.26 ± 0.082	0.933 ± 0.085	0.929 ± 0.061	0.94 ± 0.082	0.946 ± 0.018	1.06 ± 0.089	1.03 ± 0.085	0.885 ± 0.11	0.783 ± 0.044
S68 BREAST	0.783 ± 0.22	0.996 ± 0.18	1.13 ± 0.17	–	1.25 ± 0.47	1.28 ± 0.29	1.11 ± 0.28	0.868 ± 0.081	0.907 ± 0.057	0.858 ± 0.22	1.04 ± 0.15	0.847 ± 0.44	1.14 ± 0.15	0.911 ± 0.1	0.56 ± 0.076	0.369 ± 0.083
SJSA1 BONE	1.65 ± 0.051	1.71 ± 0.075	1.64 ± 0.1	1.83 ± 0.1	0.61 ± 0.12	1.36 ± 0.01	1.65 ± 0.039	1.33 ± 0.024	0.855 ± 0.056	0.861 ± 0.079	0.839 ± 0.026	0.773 ± 0.011	0.654 ± 0.029	0.504 ± 0.025	0.481 ± 0.029	0.44 ± 0.024
MCF7 BREAST	0.988 ± 0.064	–	0.97 ± 0.03	0.955 ± 0.062	1.04 ± 0.018	1.01 ± 0.033	1.05 ± 0.043	0.986 ± 0.014	0.816 ± 0.033	0.821 ± 0.015	0.819 ± 0.007	0.779 ± 0.05	0.829 ± 0.037	0.847 ± 0.028	0.787 ± 0.0039	0.7254 ± 0.0065
SUM44 BREAST	1.3 ± 0.48	–	1.24 ± 0.36	1.23 ± 0.28	1.27 ± 0.31	–	1.26 ± 0.34	1.11 ± 0.23	0.917 ± 0.045	0.918 ± 0.013	0.92 ± 0.058	0.93 ± 0.025	1.06 ± 0.037	0.973 ± 0.088	0.853 ± 0.059	0.824 ± 0.023
SIHA CERVIX	1.1 ± 0.04	1.1 ± 0.054	–	1.09 ± 0.065	1.15 ± 0.073	1.17 ± 0.054	1.12 ± 0.076	–	0.959 ± 0.083	0.957 ± 0.017	1.02 ± 0.042	1.02 ± 0.046	1.08 ± 0.071	1.08 ± 0.059	0.961 ± 0.053	0.967 ± 0.024
KPD BONE	1.077 ± 0.008	0.983 ± 0.068	1.11 ± 0.043	1.1 ± 0.082	1.16 ± 0.067	1.05 ± 0.097	–	0.99 ± 0.023	0.862 ± 0.01	0.828 ± 0.062	0.875 ± 0.021	0.891 ± 0.034	0.767 ± 0.018	0.699 ± 0.018	0.495 ± 0.04	0.407 ± 0.014
HUO3N1 BONE	1.06 ± 0.039	0.9677 ± 0.0058	1.072 ± 0.0071	1.04 ± 0.027	–	–	0.892 ± 0.038	0.878 ± 0.062	0.898 ± 0.053	0.897 ± 0.0087	0.924 ± 0.016	0.908 ± 0.044	0.957 ± 0.031	0.892 ± 0.059	0.676 ± 0.0053	0.532 ± 0.025
YAMATO SYNOVIAL	1.29 ± 0.055	1.19 ± 0.14	1.28 ± 0.14	1.26 ± 0.078	1.23 ± 0.054	1.27 ± 0.15	1.1 ± 0.11	1.05 ± 0.073	0.889 ± 0.13	0.929 ± 0.095	0.955 ± 0.081	1.03 ± 0.075	1.21 ± 0.083	1.11 ± 0.08	0.871 ± 0.088	0.796 ± 0.033
ASKA SYNOVIAL	1.1 ± 0.017	1.09 ± 0.03	1.23 ± 0.1	1.08 ± 0.095	–	1.19 ± 0.1	1.21 ± 0.095	1.07 ± 0.094	0.897 ± 0.1	0.895 ± 0.046	0.94 ± 0.096	0.931 ± 0.028	0.811 ± 0.027	0.689 ± 0.026	0.427 ± 0.029	0.343 ± 0.015
MDAMB436 BREAST	1.01 ± 0.078	0.984 ± 0.11	0.985 ± 0.079	0.998 ± 0.093	1.04 ± 0.14	–	1.1 ± 0.12	–	0.799 ± 0.027	0.825 ± 0.031	0.834 ± 0.024	0.791 ± 0.033	0.773 ± 0.031	0.814 ± 0.06	0.598 ± 0.056	0.506 ± 0.073
A549 LUNG	1.09 ± 0.035	1.07 ± 0.026	1.11 ± 0.041	1.09 ± 0.041	1.11 ± 0.049	1.1 ± 0.033	–	1.12 ± 0.016	0.932 ± 0.023	0.94 ± 0.032	0.956 ± 0.023	0.915 ± 0.046	1 ± 0.042	1.01 ± 0.018	0.825 ± 0.019	0.593 ± 0.032
